Test results taken from ChEMBL document CHEMBL5465560, “Selectivity Literature for EUbOPEN Chemogenomic Library” (2024).

How the values were obtained:
[1] = target: T1, Mitogen-activated protein kinase kinase kinase 12 (Homo sapiens) (UniProt Q12852); assay: Selectivity interaction (KinomeScan (DiscoverX)) EUB0000229b MAP3K12; conditions: at 10 µM
T1 sequence (whole entry): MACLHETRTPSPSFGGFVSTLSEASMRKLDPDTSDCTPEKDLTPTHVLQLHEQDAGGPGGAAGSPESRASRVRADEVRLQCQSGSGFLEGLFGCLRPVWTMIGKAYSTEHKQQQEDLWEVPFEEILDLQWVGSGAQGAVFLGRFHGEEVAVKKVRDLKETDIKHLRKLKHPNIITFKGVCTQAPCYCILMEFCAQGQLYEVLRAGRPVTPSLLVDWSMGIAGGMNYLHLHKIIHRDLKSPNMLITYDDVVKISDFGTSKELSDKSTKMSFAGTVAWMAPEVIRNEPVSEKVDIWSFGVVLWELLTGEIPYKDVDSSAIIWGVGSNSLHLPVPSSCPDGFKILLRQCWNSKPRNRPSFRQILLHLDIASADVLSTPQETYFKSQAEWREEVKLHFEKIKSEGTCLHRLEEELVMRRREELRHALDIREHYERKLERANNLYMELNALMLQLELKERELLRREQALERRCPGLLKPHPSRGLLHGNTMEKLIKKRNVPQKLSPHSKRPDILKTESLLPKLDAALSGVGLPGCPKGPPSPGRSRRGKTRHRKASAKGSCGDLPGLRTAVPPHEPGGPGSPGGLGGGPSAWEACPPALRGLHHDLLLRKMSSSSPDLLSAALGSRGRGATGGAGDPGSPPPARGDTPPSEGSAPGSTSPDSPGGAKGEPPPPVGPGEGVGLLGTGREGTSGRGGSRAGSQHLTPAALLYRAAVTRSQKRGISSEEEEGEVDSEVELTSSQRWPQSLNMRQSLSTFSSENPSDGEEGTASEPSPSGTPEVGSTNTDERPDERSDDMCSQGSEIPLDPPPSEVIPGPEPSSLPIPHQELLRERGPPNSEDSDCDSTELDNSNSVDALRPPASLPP

[2] = target: Cyclin-dependent kinase 17 (Homo sapiens) (UniProt Q00537); assay: Selectivity interaction (KinomeScan (DiscoverX)) EUB0000092b CDK17; conditions: at 10 µM
Sequence of Cyclin-dependent kinase 17 (Homo sapiens) (Q00537 whole entry, looked up): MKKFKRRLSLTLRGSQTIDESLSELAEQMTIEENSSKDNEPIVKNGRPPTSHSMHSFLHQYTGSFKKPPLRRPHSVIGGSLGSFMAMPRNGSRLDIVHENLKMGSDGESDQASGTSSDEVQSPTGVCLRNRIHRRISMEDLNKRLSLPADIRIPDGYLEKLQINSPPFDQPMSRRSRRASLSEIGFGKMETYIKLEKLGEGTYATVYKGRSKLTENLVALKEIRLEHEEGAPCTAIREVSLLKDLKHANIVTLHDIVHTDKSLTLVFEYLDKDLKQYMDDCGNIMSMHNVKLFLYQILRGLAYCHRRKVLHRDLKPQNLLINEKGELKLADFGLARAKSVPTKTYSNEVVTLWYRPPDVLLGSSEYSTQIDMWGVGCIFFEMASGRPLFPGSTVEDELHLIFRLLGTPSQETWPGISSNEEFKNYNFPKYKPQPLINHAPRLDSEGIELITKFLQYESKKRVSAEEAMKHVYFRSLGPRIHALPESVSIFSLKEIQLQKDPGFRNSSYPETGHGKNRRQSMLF

[3] = target: T2, Alpha-1A adrenergic receptor (Homo sapiens) (UniProt P35348); assay: Selectivity interaction (GPCR panel (PDSP screen)) EUB0001079a ADRA1A; conditions: at 10 µM
T2 sequence (whole entry): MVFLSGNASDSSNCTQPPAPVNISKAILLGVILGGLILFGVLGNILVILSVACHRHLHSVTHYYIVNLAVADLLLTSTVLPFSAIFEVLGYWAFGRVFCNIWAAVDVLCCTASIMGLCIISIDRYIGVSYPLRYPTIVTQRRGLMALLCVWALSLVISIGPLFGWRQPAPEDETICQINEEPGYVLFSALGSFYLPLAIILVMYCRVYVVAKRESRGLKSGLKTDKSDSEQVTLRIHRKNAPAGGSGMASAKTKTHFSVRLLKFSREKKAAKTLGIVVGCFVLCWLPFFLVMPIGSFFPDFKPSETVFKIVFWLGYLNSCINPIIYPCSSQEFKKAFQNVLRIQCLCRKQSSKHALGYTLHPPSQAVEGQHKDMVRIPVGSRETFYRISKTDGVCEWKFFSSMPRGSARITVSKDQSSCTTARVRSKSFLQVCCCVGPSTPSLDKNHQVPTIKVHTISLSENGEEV

[4] = target: T3, Uncharacterized serine/threonine-protein kinase SBK3 (Homo sapiens) (UniProt P0C264); assay: Selectivity interaction (KinomeScan (DiscoverX)) EUB0000666a SBK3; conditions: at 10 µM
T3 sequence (whole entry): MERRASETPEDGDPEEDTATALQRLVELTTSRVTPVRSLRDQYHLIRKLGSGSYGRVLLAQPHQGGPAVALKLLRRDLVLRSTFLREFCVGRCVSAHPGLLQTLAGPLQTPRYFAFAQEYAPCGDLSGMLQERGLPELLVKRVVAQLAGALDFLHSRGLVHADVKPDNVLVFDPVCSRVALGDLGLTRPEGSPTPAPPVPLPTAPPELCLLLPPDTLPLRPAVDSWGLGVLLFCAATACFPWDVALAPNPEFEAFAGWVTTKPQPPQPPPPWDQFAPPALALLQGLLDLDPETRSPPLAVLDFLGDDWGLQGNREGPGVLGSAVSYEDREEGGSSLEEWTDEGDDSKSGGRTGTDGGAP

[5] = target: Ribosomal protein S6 kinase alpha-3 (Homo sapiens, UniProt P51812); assay: Selectivity interaction (ActivX KiNativ screen (kinase selectivity in THP-1 cell lysates)) EUB0000639a RPS6KA3; format: subcellular; conditions: lysate
Sequence of Ribosomal protein S6 kinase alpha-3 (P51812 whole entry): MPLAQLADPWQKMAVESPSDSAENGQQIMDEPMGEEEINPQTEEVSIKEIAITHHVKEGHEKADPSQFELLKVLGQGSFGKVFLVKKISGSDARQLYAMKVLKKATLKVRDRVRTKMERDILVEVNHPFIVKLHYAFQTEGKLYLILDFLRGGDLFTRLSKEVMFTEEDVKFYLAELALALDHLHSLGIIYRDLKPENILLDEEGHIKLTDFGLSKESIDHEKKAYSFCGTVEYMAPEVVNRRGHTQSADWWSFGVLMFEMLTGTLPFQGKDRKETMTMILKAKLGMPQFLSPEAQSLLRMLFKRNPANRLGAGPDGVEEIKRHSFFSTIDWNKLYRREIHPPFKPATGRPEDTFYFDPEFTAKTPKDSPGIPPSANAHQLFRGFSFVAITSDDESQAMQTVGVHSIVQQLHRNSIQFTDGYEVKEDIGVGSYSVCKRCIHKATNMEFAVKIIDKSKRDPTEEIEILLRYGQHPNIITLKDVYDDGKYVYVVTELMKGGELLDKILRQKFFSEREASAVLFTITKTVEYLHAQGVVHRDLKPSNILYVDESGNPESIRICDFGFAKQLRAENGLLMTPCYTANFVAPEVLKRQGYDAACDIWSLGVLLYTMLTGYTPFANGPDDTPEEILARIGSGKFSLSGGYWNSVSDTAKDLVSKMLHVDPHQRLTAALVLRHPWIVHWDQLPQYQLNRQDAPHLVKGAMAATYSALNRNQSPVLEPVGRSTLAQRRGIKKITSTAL

[6] = target: Serine/threonine-protein kinase MRCK gamma (Homo sapiens) (UniProt Q6DT37); conditions: at 10 µM
Sequence of Serine/threonine-protein kinase MRCK gamma (Homo sapiens) (Q6DT37 whole entry, canonical isoform): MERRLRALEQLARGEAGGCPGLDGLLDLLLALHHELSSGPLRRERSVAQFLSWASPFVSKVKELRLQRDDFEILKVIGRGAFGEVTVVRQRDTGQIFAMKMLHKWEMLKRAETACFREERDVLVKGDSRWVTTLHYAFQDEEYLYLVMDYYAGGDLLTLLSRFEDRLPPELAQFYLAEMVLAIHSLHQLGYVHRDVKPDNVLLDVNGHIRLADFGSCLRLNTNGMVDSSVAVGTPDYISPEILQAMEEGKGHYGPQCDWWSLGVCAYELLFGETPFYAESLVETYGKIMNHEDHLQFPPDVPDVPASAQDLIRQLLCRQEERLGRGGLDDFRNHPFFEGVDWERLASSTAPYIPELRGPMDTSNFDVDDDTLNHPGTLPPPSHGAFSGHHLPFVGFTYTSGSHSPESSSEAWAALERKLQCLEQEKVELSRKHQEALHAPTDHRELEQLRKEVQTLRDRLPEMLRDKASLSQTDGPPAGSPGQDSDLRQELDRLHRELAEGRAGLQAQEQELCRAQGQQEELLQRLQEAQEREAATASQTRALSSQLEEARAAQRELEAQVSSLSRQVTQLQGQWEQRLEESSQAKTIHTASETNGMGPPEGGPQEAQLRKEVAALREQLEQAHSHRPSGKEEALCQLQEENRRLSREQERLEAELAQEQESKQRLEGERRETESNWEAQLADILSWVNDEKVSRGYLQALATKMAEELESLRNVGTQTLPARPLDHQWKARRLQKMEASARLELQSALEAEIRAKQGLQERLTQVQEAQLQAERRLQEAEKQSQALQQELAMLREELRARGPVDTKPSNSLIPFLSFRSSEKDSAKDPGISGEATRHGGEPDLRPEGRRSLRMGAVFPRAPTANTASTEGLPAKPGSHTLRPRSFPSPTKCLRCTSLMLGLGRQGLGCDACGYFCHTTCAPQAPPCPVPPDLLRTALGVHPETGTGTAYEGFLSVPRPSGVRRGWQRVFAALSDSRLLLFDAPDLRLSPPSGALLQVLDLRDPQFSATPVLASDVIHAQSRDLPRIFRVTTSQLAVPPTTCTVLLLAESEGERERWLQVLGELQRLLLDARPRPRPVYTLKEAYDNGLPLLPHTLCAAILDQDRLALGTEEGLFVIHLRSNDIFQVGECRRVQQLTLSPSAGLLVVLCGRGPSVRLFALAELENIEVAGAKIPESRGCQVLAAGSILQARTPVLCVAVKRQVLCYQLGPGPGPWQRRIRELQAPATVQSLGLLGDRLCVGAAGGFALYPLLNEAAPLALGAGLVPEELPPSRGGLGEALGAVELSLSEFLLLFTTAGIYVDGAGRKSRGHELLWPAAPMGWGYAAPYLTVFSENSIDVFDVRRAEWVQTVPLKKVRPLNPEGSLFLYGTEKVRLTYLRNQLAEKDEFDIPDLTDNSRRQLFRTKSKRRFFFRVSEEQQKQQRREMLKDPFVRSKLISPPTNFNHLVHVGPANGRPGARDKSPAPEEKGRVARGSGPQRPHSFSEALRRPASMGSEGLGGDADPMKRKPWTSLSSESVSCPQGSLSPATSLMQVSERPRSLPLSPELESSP

[7] = tested on: Phosphatidylinositol 4,5-bisphosphate 3-kinase catalytic subunit alpha isoform (Homo sapiens), P42336 [H1047L]; conditions: at 10 µM
[8] = tested on: Epidermal growth factor receptor (Homo sapiens), P00533 [G719C]; conditions: at 10 µM
Sequence of Epidermal growth factor receptor (Homo sapiens), P00533 [G719C] (P00533 whole entry G719C): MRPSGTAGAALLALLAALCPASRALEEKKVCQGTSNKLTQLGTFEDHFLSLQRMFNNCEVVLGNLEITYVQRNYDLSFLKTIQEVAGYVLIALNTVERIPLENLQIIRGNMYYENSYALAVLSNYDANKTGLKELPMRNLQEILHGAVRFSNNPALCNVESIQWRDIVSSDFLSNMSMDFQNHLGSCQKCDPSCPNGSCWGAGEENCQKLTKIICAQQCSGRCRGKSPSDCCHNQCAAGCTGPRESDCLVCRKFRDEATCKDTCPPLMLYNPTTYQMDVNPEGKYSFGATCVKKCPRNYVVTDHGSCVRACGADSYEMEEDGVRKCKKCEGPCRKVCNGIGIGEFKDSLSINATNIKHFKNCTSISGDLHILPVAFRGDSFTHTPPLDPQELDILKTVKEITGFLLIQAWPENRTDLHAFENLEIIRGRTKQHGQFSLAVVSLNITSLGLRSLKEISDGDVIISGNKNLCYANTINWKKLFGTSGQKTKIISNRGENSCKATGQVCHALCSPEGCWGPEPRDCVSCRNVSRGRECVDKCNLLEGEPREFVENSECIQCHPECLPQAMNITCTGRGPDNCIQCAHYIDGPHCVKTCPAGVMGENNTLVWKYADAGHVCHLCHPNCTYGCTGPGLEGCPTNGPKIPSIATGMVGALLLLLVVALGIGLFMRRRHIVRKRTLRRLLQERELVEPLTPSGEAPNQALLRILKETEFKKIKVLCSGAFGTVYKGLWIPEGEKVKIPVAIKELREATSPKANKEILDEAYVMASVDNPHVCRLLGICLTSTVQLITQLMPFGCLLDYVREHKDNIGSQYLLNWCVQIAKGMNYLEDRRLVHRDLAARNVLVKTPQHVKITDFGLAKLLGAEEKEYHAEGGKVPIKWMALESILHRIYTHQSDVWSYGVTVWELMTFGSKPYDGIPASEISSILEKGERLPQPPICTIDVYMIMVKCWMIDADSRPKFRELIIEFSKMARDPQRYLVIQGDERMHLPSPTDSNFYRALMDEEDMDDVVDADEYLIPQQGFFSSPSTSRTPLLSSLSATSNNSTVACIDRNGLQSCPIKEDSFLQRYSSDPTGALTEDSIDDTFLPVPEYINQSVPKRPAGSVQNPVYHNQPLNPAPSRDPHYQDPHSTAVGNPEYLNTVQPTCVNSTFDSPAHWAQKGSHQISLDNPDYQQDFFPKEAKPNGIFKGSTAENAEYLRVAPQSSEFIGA

[9] = target: T4, Sphingosine kinase 2 (Homo sapiens) (UniProt Q9NRA0); assay: Selectivity interaction (Kinase panel (literature)) EUB0001199aCl SPHK2; conditions: at 1 µM
T4 sequence (whole entry): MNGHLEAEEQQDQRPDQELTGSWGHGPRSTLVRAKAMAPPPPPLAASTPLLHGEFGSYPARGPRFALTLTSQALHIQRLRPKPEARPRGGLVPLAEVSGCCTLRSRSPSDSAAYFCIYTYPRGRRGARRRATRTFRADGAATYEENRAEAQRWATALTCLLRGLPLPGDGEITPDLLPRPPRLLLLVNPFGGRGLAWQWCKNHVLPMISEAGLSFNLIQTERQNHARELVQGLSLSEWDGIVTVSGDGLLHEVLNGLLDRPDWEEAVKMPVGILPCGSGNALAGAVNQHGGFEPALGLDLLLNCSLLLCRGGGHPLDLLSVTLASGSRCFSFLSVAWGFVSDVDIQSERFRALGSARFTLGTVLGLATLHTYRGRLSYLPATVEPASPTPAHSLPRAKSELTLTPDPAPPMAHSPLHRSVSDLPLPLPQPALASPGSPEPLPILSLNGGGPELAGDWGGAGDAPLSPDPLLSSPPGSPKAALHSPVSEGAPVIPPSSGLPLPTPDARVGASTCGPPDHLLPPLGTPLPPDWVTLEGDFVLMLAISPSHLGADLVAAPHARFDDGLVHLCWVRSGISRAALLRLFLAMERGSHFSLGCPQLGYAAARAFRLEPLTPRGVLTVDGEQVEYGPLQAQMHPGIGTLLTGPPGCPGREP

[10] = target: Serine/threonine-protein kinase PLK1 (Homo sapiens, UniProt P53350); assay: Selectivity interaction (KinomeScan (DiscoverX)) EUB0001619a PLK1; conditions: at 1 µM
Sequence of Serine/threonine-protein kinase PLK1 (P53350 whole entry): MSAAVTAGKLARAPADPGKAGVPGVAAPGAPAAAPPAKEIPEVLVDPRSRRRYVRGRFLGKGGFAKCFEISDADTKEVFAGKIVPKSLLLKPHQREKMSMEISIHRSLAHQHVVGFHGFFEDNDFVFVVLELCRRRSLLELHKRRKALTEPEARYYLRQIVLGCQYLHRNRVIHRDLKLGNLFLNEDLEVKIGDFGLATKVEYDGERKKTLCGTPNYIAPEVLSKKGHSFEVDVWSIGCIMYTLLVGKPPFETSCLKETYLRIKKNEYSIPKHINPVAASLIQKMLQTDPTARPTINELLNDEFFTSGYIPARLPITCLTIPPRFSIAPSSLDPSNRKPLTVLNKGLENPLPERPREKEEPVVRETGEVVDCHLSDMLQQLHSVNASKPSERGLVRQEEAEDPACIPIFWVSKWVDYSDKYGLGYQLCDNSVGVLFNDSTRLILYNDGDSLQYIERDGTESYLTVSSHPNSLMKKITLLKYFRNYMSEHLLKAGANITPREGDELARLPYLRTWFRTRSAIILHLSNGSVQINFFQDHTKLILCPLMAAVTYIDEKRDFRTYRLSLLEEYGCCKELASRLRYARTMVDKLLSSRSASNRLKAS

COc1cc(N(C)c2ccnc3ccc(C(F)(F)F)cc23)cc(OC)c1OC
% binding [1]: 78%

CCC(=O)N1CCN(c2ccc(-n3c(=O)ccc4cnc5ccc(-c6cnc7ccccc7c6)cc5c43)cc2C(F)(F)F)CC1
% of control [2]: 97%

Nc1cnc(N2CCc3cc(S(=O)(=O)Nc4c(F)cc(Cl)cc4F)cc(N4CCCC4=O)c32)nc1 [TP-020n]
% of inhibition [3]: -15.7%

O=C(NOC[C@H](O)CO)c1ccc(F)c(F)c1Nc1ccc(I)cc1F
% of control [4]: 100%

CC[C@@H]1[C@H](F)C(=O)N[C@@H]1COc1nccc2cc(C(N)=O)c(OC)cc12 [ZIMLOVISERTIB]
% of inhibition ([5]; at 0.01 µM): 16.9%
% of inhibition ([5]; at 0.04 µM): 12.4%
% of inhibition ([5]; at 0.2 µM): 10.3%
% of inhibition ([5]; at 1 µM): 8.6%
% of inhibition ([5]; at 5 µM): 11.7%

COCC(=O)NC/C=C/c1ccc2ncnc(Nc3ccc(Oc4ccc(C)nc4)c(C)c3)c2c1 [CP-724714]
% of control [6]: 90%
% of control [7]: 100%
% of control [8]: 0%

CN1Cc2nccc(-c3cn(C)nc3-c3ccc(F)cc3)c2C1=O
% of inhibition [9]: -7%

N#Cc1cccc(-c2c[nH]c3ncnc(N4CCOCC4)c23)c1
% of control [10]: 100%
